According to ChEMBL document CHEMBL3352025, “Evaluation of the neuroprotective activity of stansin 6, a resin glycoside from Ipomoea stans” (Bioorg Med Chem Lett, 2014):
Activity calls are given as the source filed them. The rule behind the calls is not given here.

Experiments:
Rattus norvegicus [1] = experiment: Toxicity in rat assessed as hippocampal damage at 10 to 80 mg/kg, ip; assay type: organism-based, Hippocampus; set-up: dose 10-80 mg/kg, route intraperitoneal; details: in vivo
Rattus norvegicus [2] = experiment: Reduction in IL-1beta in kainic acid-induced rat brain at 10 mg/kg, ip; assay type: functional, organism-based; set-up: dose 10 mg/kg
Rattus norvegicus [3] = experiment: Anticonvulsant activity in rat assessed as protection against kainic acid-induced seizures in denate gyrus at 10 mg/kg, ip; assay type: functional, organism-based; set-up: dose 10 mg/kg
Rattus norvegicus [4] = experiment: Decrease in astrocyte reactivity in kainic acid-induced rat brain inCA3 region at 10 mg/kg, ip by GFAP staining; assay type: functional, organism-based; set-up: dose 10 mg/kg
Rattus norvegicus [5] = experiment: Toxicity in rat assessed as seizures at 10 to 80 mg/kg, ip; assay type: organism-based; set-up: dose 10-80 mg/kg, route intraperitoneal; details: in vivo
Rattus norvegicus [6] = experiment: Neuroprotective activity in kainic acid-induced rat assessed as decrease in hippocampal neuronal loss at 10 mg/kg, ip; assay type: functional, organism-based; set-up: dose 10 mg/kg
Rattus norvegicus [7] = experiment: Reduction in degeneration pattern in kainic acid-induced rat brain inCA3 region at 10 mg/kg, ip by GFAP staining; assay type: functional, organism-based; set-up: dose 10 mg/kg
Rattus norvegicus [8] = experiment: Anticonvulsant activity in rat assessed as protection against kainic acid-induced death at 10 mg/kg, ip; assay type: functional, organism-based; set-up: dose 10 mg/kg
Rattus norvegicus [9] = experiment: Toxicity in rat assessed as convulsions at 10 to 80 mg/kg, ip; assay type: organism-based; set-up: dose 10-80 mg/kg, route intraperitoneal; details: in vivo
Rattus norvegicus [10] = experiment: Anticonvulsant activity in rat assessed as protection against kainic acid-induced convulsions at 10 mg/kg, ip; assay type: functional, organism-based; set-up: dose 10 mg/kg
Rattus norvegicus [11] = experiment: Reduction in TNFalpha in kainic acid-induced rat brain at 10 mg/kg, ip; assay type: functional, organism-based; set-up: dose 10 mg/kg

CCCCC[C@H]1CCCCCCCCCC(=O)O[C@@H]2[C@@H](O[C@@H]3O[C@H](C)[C@@H](OC(=O)[C@@H](C)CC)[C@H](O)[C@H]3O)[C@H](C)O[C@@H](O[C@H]3[C@H](O[C@H]4[C@H](O1)O[C@H](C)[C@@H](O)[C@@H]4O)O[C@H](COC(=O)[C@H](C)[C@@H](C)O)[C@@H](O)[C@@H]3O)[C@@H]2OC(=O)[C@@H](C)CC [ORIZABIN XX]
Activity (Rattus norvegicus [1]): Non-toxic | Activity (Rattus norvegicus [2]): Active | Activity (Rattus norvegicus [3]): Active | Activity (Rattus norvegicus [4]): Active | Activity (Rattus norvegicus [5]): Non-toxic | Activity (Rattus norvegicus [6]): Active | Activity (Rattus norvegicus [7]): Active | Activity (Rattus norvegicus [8]): Active | Activity (Rattus norvegicus [9]): Non-toxic | inhibition (Rattus norvegicus [10]): Active | Activity (Rattus norvegicus [11]): Active
